Source: ChEMBL document CHEMBL1857833, “Screening and optimization of specific chemical series against human African Trypanosomiasis (HAT)”
≈ marks a conversion by molar mass, not a printed value.

System: Trypanosoma brucei
Assay: DNDI: Inhibition of Human African Trypanosomiasis, SBRI 427, in vitro
Assay type: functional, organism-based
Conditions: not given

| SMILES | IC50 |
| --- | --- |
| CCCCc1ccc(-c2nc(CNCCCN3CCCCC3)co2)cc1 | 1.48 µg/mL (≈ 4.16 µM) |
| CCCCc1ccc(-c2nc(CNCCCN3CCCC3)co2)cc1 | 0.89 µg/mL (≈ 2.61 µM) |

Same assay, conditions: Trypanosoma brucei, SBRI 427; read-out: IC50

| SMILES | IC50 |
| --- | --- |
| CCC(CC)N/C(=N\O)c1cccnc1Oc1ccccc1F | 0.43 µg/mL (≈ 1.35 µM) |
| O/N=C(\NC1CCC1)c1ccnc(Oc2cc(Cl)ccc2Cl)c1 | 0.6 µg/mL (≈ 1.7 µM) |
| O/N=C(\NC1CCCCC1)c1ccnc(Oc2ccc(F)c(F)c2)c1 | > 5 µg/mL |
| Cc1ccc(/C(=N/O)NCCN2CCCC2)c(Oc2ccc(F)cc2)n1 | 37.5 µg/mL (≈ 105 µM) |
| Cc1ccc(Oc2nc(C)ccc2/C(=N/O)NC2CCCC2)cc1 | 6.96 µg/mL (≈ 21.4 µM) |
| O/N=C1\COc2ccccc21 | > 5 µg/mL |
| CCCCc1ccc(-c2nc(CNCCCN3CCCCC3)co2)cc1 | 2.01 µg/mL (≈ 5.65 µM) |
| Cc1ccc(Oc2cc(/C(=N/O)N3CCCCCC3)ccn2)c(C)c1 | > 5 µg/mL |
| CCCC(CCC)NCc1coc(-c2ccccc2OCC)n1 | 1.76 µg/mL (≈ 5.56 µM) |
| O/N=C(/c1ccnc(Oc2cccc3c2CCCC3)c1)N1CCSCC1 | > 5 µg/mL |
| O/N=C(\NC1CCCCC1)c1ccc(Oc2ccc3ccccc3c2)nc1 | > 5 µg/mL |
| C[C@H]1C(NCc2coc(-c3ccc(O)cc3)n2)C[C@@H]2C[C@H]1C2(C)C (stereo partly drawn) | 1.36 µg/mL (≈ 4.17 µM) |
| COc1ccc(/C=N/OCc2c(F)c(F)c(F)c(F)c2F)cc1 | > 5 µg/mL |
| O/N=C(\NC1CCCC1)c1ccc(Oc2c(F)c(F)cc(F)c2F)nc1 | 3.8 µg/mL (≈ 10.3 µM) |
| CCc1ccc(Oc2ccc(/C(=N/O)NC3CCCC3)cn2)cc1 | 40.8 µg/mL (≈ 126 µM) |
| O/N=C(\NC1CCCC1)c1ccnc(Oc2ccc(Cl)cc2)c1 | 5 µg/mL (≈ 15.1 µM) |
| CCC(CC)N/C(=N\O)c1ccc(Oc2cc(C)cc(C)c2)nc1 | 1.61 µg/mL (≈ 4.92 µM) |
| CC(C)(C)CN/C(=N\O)c1ccnc(Oc2ccc(F)c(Cl)c2)c1 | 2.73 µg/mL (≈ 7.76 µM) |
| O/N=C(\NCc1cccnc1)c1ccc(Oc2ccc3oc4ccccc4c3c2)nc1 | 3.79 µg/mL (≈ 9.23 µM) |
| CCCCc1ccc(-c2nc(CNCCCN3CCCC3)co2)cc1 | 1.6 µg/mL (≈ 4.69 µM) |
| O/N=C(\NC1CCCC1)c1ccnc(Oc2cccc(F)c2)c1 | 2.27 µg/mL (≈ 7.2 µM) |
| O/N=C(\NCc1c(F)cccc1F)c1cccnc1Oc1ccc(F)cc1 | 2.18 µg/mL (≈ 5.84 µM) |
| C[C@H]1C(NCc2coc(-c3cccc(F)c3)n2)C[C@@H]2C[C@H]1C2(C)C (stereo partly drawn) | 1.56 µg/mL (≈ 4.75 µM) |
| CCC(CC)N/C(=N\O)c1ccnc(Oc2ccc(OC)cc2)c1 | 3.65 µg/mL (≈ 11.1 µM) |

| SMILES | IC50 |
| --- | --- |
| O/N=C(\NC1CCCC1)c1cccnc1Oc1ccccc1F | 18.2 µg/mL (≈ 57.8 µM) |
| C[C@@H]1C(NCc2coc(-c3cccc(F)c3)n2)C[C@H]2C[C@@H]1C2(C)C (stereo partly drawn) | 1.18 µg/mL (≈ 3.59 µM) |
| O/N=C(\NC1CCCCC1)c1ccnc(Oc2ccc(Cl)cc2)c1 | 2.4 µg/mL (≈ 6.94 µM) |
| O/N=C(\NC1CCCCC1)c1ccc(Oc2c(F)c(F)cc(F)c2F)nc1 | 4.06 µg/mL (≈ 10.6 µM) |
| Fc1c(F)c(F)c(CO/N=C/c2ccccc2-c2ccccc2)c(F)c1F | > 5 µg/mL |
| C(=N\Oc1ccccc1)/c1ccccc1-c1ccccc1 | > 5 µg/mL |
| O/N=C(\NC1CCC1)c1ccc(Oc2ccc3oc4ccccc4c3c2)nc1 | 1.06 µg/mL (≈ 2.84 µM) |
| CCC(C)(C)N/C(=N\O)c1ccc(Oc2cccc3ccccc23)nc1 | 0.86 µg/mL (≈ 2.46 µM) |
| CC(C)(C)CN/C(=N\O)c1ccnc(Oc2cccc(F)c2)c1 | 2.19 µg/mL (≈ 6.9 µM) |
| Cc1cc(C)cc(CN/C(=N\O)c2ccc(C)nc2OCc2ccccn2)c1 | 2.79 µg/mL (≈ 7.41 µM) |
| C=CCc1ccc(Oc2cc(/C(=N/O)NCc3ccc(OC)cc3)ccn2)c(OC)c1 | > 5 µg/mL |
| O/N=C(\NC1CCc2ccccc21)c1cccnc1Oc1ccc2ccccc2c1 (stereo not drawn) | 1.47 µg/mL (≈ 3.72 µM) |
| O/N=C(\NC1CCCC1)c1ccc(Oc2cccc3c2CCCC3)nc1 | 0.31 µg/mL (≈ 0.882 µM) |
| O/N=C(\NCC1CCCCC1)c1ccc(Oc2ccc(-n3ccnc3)cc2)nc1 | 1.43 µg/mL (≈ 3.65 µM) |
| CC(C)c1ccc(Oc2ncccc2/C(=N/O)NCc2c(F)cccc2F)cc1 | > 5 µg/mL |
| O/N=C(\NCc1ccccc1)c1cccnc1Oc1ccc(F)cc1Cl | 0.62 µg/mL (≈ 1.67 µM) |
| CCC(CC)N/C(=N\O)c1cccnc1Oc1ccccc1SC | 0.41 µg/mL (≈ 1.19 µM) |
| O/N=C(\NCC1CCCCC1)c1ccnc(Oc2ccc(Cl)cc2)c1 | 3.98 µg/mL (≈ 11.1 µM) |
| CCc1ccc(Oc2ccc(/C(=N/O)NCC3CC3)cn2)cc1 | 0.37 µg/mL (≈ 1.19 µM) |
| Cc1cc(Oc2ccc(/C(=N/O)N3CCCC3C)cn2)cc(C(C)C)c1 (stereo not drawn) | > 5 µg/mL |
| Cc1ccc(/C(=N/O)NC2CCCC2)c(Oc2ccc3oc4ccccc4c3c2)n1 | 0.67 µg/mL (≈ 1.67 µM) |
| CC(C)c1cccc(Oc2cc(/C(=N/O)N3CCN(c4ccccc4)CC3)ccn2)c1 | 2.91 µg/mL (≈ 6.99 µM) |
| COCC(C)N/C(=N\O)c1ccc(Oc2ccc3ccccc3c2)nc1 (stereo not drawn) | > 5 µg/mL |
| Cc1ccc2cccc(Oc3cc(/C(=N/O)NC4CCC(C)CC4)ccn3)c2n1 (stereo not drawn) | 4.86 µg/mL (≈ 12.4 µM) |

| SMILES | IC50 |
| --- | --- |
| O/N=C(\NC1CC1)c1cccnc1Oc1ccccc1F | 4.25 µg/mL (≈ 14.8 µM) |
| O/N=C(\NCC1CC1)c1ccc(Oc2cccc3c2CCCC3)nc1 | 0.53 µg/mL (≈ 1.57 µM) |
| COc1ccc(Oc2cc(/C(=N/O)NCC(C)C)ccn2)cc1 | > 5 µg/mL |
| C[C@H]1C(NCc2coc(-c3cccs3)n2)C[C@@H]2C[C@H]1C2(C)C (stereo partly drawn) | 2.27 µg/mL (≈ 7.17 µM) |
| CCC(CC)N/C(=N\O)c1cccnc1Oc1ccccc1OC | 0.59 µg/mL (≈ 1.79 µM) |
| O/N=C(\NCC1CCCCC1)c1cccnc1Oc1ccc(-n2cncn2)cc1 | 0.59 µg/mL (≈ 1.5 µM) |
| O/N=C(\NC1CCC1)c1ccc(Oc2ccc3ccccc3c2)nc1 | > 5 µg/mL |
| Cc1cc(C)cc(CN/C(=N\O)c2cccnc2OCc2ccccc2F)c1 | 1.96 µg/mL (≈ 5.17 µM) |
| COc1ccc(Oc2cc(/C(=N/O)NCC(C)(C)C)ccn2)cc1 | 4.8 µg/mL (≈ 14.6 µM) |
| CC1CCC(N/C(=N\O)c2ccnc(Oc3cccc4cccnc34)c2)CC1 (stereo not drawn) | > 5 µg/mL |
| COCC(C)N/C(=N\O)c1ccnc(Oc2ccc(SC)cc2)c1 (stereo not drawn) | 0.45 µg/mL (≈ 1.3 µM) |
| Cc1cc(C)cc(Oc2ccc(/C(=N/O)NC3CCC(C)CC3)cn2)c1 (stereo not drawn) | 2.93 µg/mL (≈ 8.29 µM) |
| CN(/C(=N\O)c1ccnc(Oc2ccc(F)c(Cl)c2)c1)C1CCCCC1 | > 5 µg/mL |
| Cc1ccc(Oc2ncccc2/C(=N/O)NCc2c(F)cccc2F)cc1 | 1.75 µg/mL (≈ 4.74 µM) |
| CCCCc1ccc(-c2nc(C)c(C(=O)OC)o2)cc1 | > 5 µg/mL |
| O/N=C(\NC1CCCC1)c1ccnc(Oc2cc(Cl)ccc2Cl)c1 | 10.8 µg/mL (≈ 29.6 µM) |
| O/N=C(\NC1CC1)c1ccc(Oc2ccc3oc4ccccc4c3c2)nc1 | 36.6 µg/mL (≈ 102 µM) |
| CCC(CC)N/C(=N\O)c1ccc(Oc2cccc3c2CCCC3)nc1 | 1.26 µg/mL (≈ 3.56 µM) |
| O/N=C(\NC1CCC1)c1ccc(Oc2c(F)c(F)cc(F)c2F)nc1 | 2.58 µg/mL (≈ 7.26 µM) |
| O/N=C(\NC1CCCCC1)c1ccnc(Oc2ccc(F)c(Cl)c2)c1 | 3.79 µg/mL (≈ 10.4 µM) |
| CCOc1ccccc1-c1nc(CNC(C)C(C)(C)C)co1 (stereo not drawn) | 2.12 µg/mL (≈ 7.01 µM) |
| COc1ccc(Oc2cc(/C(=N/O)NC3CCCCC3)ccn2)cc1 | 3.73 µg/mL (≈ 10.9 µM) |
| COc1ccccc1Oc1ncccc1/C(=N/O)NCC1CC1 | 0.35 µg/mL (≈ 1.12 µM) |
| CSc1ccccc1Oc1ncccc1/C(=N/O)NC1CCCC1 | 2.99 µg/mL (≈ 8.71 µM) |

| SMILES | IC50 |
| --- | --- |
| CC1CCc2ccccc2N1/C(=N\O)c1cccnc1Oc1ccc(-n2cncn2)cc1 (stereo not drawn) | 0.73 µg/mL (≈ 1.71 µM) |
| CCCCc1ccc(-c2nc(-c3ccccc3)c(-c3ccccc3)o2)cc1 | > 5 µg/mL |
| O/N=C(\NCC1CCCCC1)c1ccnc(Oc2cccc3c2CCCC3)c1 | 5 µg/mL (≈ 13.2 µM) |
| O/N=C(\NC1CCCC1)c1ccnc(Oc2ccc(F)c(Cl)c2)c1 | 2.2 µg/mL (≈ 6.29 µM) |
| Cc1ccc(Oc2ccc(/C(=N/O)NC3CCCC3)cn2)c(C)c1 | 21.8 µg/mL (≈ 66.9 µM) |
| CCCCc1ccc(-c2nc(CNCc3ccc(C)cc3)co2)cc1 | 3.05 µg/mL (≈ 9.12 µM) |
| Cc1ccc(/C(=N/O)NC2CCC2)c(Oc2ccc3oc4ccccc4c3c2)n1 | 0.39 µg/mL (≈ 1.01 µM) |
| CSc1ccc(Oc2nc(C)ccc2/C(=N/O)NC2CCCC2)cc1C | 0.96 µg/mL (≈ 2.58 µM) |
| COCC(C)N/C(=N\O)c1ccnc(Oc2ccc(Cl)cc2)c1 (stereo not drawn) | 0.36 µg/mL (≈ 1.07 µM) |
| O/N=C(/c1cccnc1Oc1ccc(F)cc1Cl)N1CCCc2ccccc21 | 0.54 µg/mL (≈ 1.36 µM) |
| CCC(CC)N/C(=N\O)c1cccnc1Oc1ccc(F)cc1 | 1.32 µg/mL (≈ 4.16 µM) |
| CCCCc1ccc(-c2nc(CNCc3ccc(Cl)cc3)co2)cc1 | > 5 µg/mL |
| COCCN/C(=N\O)c1ccc(C)nc1Oc1ccc(SC)c(C)c1 | > 5 µg/mL |
| COc1ccc(Oc2cc(/C(=N/O)NC3CCC3)ccn2)cc1 | 4.78 µg/mL (≈ 15.3 µM) |
| CCC(C)(C)N/C(=N\O)c1ccc(Oc2ccc3oc4ccccc4c3c2)nc1 | 1.6 µg/mL (≈ 4.11 µM) |
| CCC(C)(C)N/C(=N\O)c1ccc(Oc2cc(C)cc(C)c2)nc1 | 2.36 µg/mL (≈ 7.21 µM) |
| O/N=C(\NCC1CC1)c1cccnc1Oc1ccc(F)cc1 | 1.23 µg/mL (≈ 4.08 µM) |
| Cc1ccc(/C(=N/O)NC2CCCCC2)c(Oc2ccc3ccccc3c2)n1 | 0.37 µg/mL (≈ 0.985 µM) |
| CCOc1ccccc1-c1nc(CNC(C)C2CCCCC2)co1 (stereo not drawn) | 1.94 µg/mL (≈ 5.91 µM) |
| Cc1cc(C)cc(Oc2nc(C)ccc2/C(=N/O)N2c3ccccc3CCC2C)c1 (stereo not drawn) | 1.6 µg/mL (≈ 3.98 µM) |
| CC1CCCN1/C(=N\O)c1ccc(Oc2ccc3ccccc3c2)nc1 (stereo not drawn) | 2.32 µg/mL (≈ 6.68 µM) |
| O/N=C(\NC1CCCC1)c1ccnc(Oc2ccc(F)c(F)c2)c1 | 2.94 µg/mL (≈ 8.82 µM) |

System: not listed separately
Assay: DNDI: Cytotoxicity against L929 mouse fibroblasts, 72 hour.
Assay type: toxicity, cell-based
Conditions: mouse, L929 mouse fibroblasts

| SMILES | IC50 at 72 h |
| --- | --- |
| COc1ccc(/C(=N/O)Nc2cccc(C)c2)cc1 | > 10 µg/mL |
| O/N=C1\COc2ccccc21 | > 10 µg/mL |
| CCCCc1ccc(-c2nc(CNCCCN3CCCCC3)co2)cc1 | 6.2 µg/mL (≈ 17.4 µM) |
| COc1ccc(/C=N/OCc2c(F)c(F)c(F)c(F)c2F)cc1 | > 10 µg/mL |
| CCCCc1ccc(-c2nc(CNCCCN3CCCC3)co2)cc1 | 6.03 µg/mL (≈ 17.7 µM) |
| Fc1c(F)c(F)c(CO/N=C/c2ccccc2-c2ccccc2)c(F)c1F | > 10 µg/mL |
| C(=N\Oc1ccccc1)/c1ccccc1-c1ccccc1 | > 10 µg/mL |
| CCCCc1ccc(-c2nc(C)c(C(=O)OC)o2)cc1 | > 10 µg/mL |
| CCCCc1ccc(-c2nc(-c3ccccc3)c(-c3ccccc3)o2)cc1 | > 10 µg/mL |
| CCCCc1ccc(-c2nc(CNCc3ccc(C)cc3)co2)cc1 | 2.63 µg/mL (≈ 7.86 µM) |
| CCCCc1ccc(-c2nc(CNCc3ccc(Cl)cc3)co2)cc1 | 7.38 µg/mL (≈ 20.8 µM) |
| COc1ccc(/C(=N/O)Nc2cccc(C(C)(C)C)c2)cc1 | 3.91 µg/mL (≈ 13.1 µM) |
